# Measured values from patent publication US9951065B2 (Gilead Sciences, Inc., priority 2015, dated 2018).
# Target: T1, IDO1 (Homo sapiens, UniProt P14902)
# T1 construct: HeLa cells were treated with a test compound in the presence of IFNγ, which induces IDO1 expression; host or cells: H1-HeLa cells, IDO1 induced with IFNγ
# Assay: Cell-based (HeLa) assay for measurement of IDO1 inhibition (kynurenine levels in supernatant after IFNγ induction)
# Details: HeLa cells, geometric mean of a minimum of four determinations
# Experimental: Example 509. Cell-Based (HeLa) Assay for Measurement of IDOL Inhibition
# To measure IDO1 inhibition in tissue culture, HeLa cells were treated with a test compound in the presence of IFNγ, which induces IDO1 expression. Following incubation, cell supernatants were assayed for kynurenine levels, an indicator of IDO1 activity.
# H1-HeLa cells (ATCC #CRL-1958) were seeded in 384-well plates (Greiner #82051-282) at a volume of 50 μL/well in DMEM (Corning #15-018-CM) supplemented with 10% FBS (Corning #35-011-CV) and 1% P/S/G (Corning #30-009-CL) at a density of 1,250 cells/well and incubated overnight at 37° C., 5% CO2/100% humidity. The following day, the test compounds were added in DMSO (0.5% final) at various concentrations, and IDO1 was inducibly expressed by the addition of 50 uL/well of […] of INFγ (Peprotech #300-02) in cell plating media. As a […] control, 50 uL of the cell plating media without IFNγ was added to several wells. Following a 48 hour incubation, the plates were spun down at 1,200 RPM for 5 min at 10° C. 65 μL/well of the supernatant was then transferred to new 384-well plates (Thermo #262160) that contained 10 uL/well of 30% TCA (Sigma #TO699), and the plates were sealed and incubated at 60° C. for 30 min. The plates were then centrifuged for 15 min at 2,000 RPM at 10° C. 40 μL/well of the supernatant was transferred to new 384-well plates (Thermo #262160) and was reacted with 40 μL/well of 2% (w/v) p-dimethlyaminobenzaldehyde (Sigma #156417) in glacial acetic acid (Sigma #A6283). The reaction was incubated at room temperature for 10 min and absorbance at 480 nm was read using a PerkinElmer Envision plate reader.
# Data in Table 1 were normalized based on positive (−IFNγ) and negative (+IFNγ) controls and EC50 values were calculated from the fit of the dose response curves to a four-parameter equation. All EC50 values represent geometric mean values of a minimum of four determinations. These assays generally produced results within 2-fold of the reported mean.
# [1] = IFNγ-induced IDO1, kynurenine in supernatant, 48 hour incubation
# [2] = IFNγ-induced IDO1, kynurenine in supernatant after 48 hour incubation
# T1 sequence (P14902 whole entry): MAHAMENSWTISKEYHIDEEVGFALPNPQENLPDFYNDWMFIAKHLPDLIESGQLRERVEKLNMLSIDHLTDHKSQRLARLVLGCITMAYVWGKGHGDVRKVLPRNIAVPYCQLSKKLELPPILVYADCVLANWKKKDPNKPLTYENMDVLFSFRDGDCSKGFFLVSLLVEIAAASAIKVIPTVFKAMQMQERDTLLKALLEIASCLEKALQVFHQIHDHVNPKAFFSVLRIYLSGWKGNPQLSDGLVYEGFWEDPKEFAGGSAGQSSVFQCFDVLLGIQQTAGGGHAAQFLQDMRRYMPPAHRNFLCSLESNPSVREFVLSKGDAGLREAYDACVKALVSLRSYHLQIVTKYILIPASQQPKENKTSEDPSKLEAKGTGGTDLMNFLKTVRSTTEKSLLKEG
EC50 [1] [µM],EC50 [2] [µM],SMILES
,0.241,"O/N=C(\Nc1ccc(F)c(Cl)c1)c1ccnc2nc(CCN3CCCCC3)[nH]c12 [Example 192, N-(3-Chloro-4-fluorophenyl)-N′-hydroxy-2-(2-(piperidin-1-yl)ethyl)-1H-imidazo[4,5-b]pyridine-7-carboximidamide]"
,3.19,"CCc1nc2nccc(/C(=N/O)Nc3ccc(F)c(Cl)c3)c2[nH]1 [Example 108, N-(3-Chloro-4-fluorophenyl)-2-ethyl-N′-hydroxy-1H-imidazo[4,5-b]pyridine-7-carboximidamide]"
,0.46,"CNc1nc2nccc(/C(=N/O)Nc3ccc(F)c(Cl)c3)c2[nH]1 [Example 158, N-(3-Chloro-4-fluorophenyl)-N′-hydroxy-2-(methylamino)-1H-imidazo[4,5-b]pyridine-7-carboximidamide]"
,2.14,"O/N=C(\Nc1ccc(F)c(Cl)c1)c1ccnc2nc(NC3CCOCC3)[nH]c12 [Example 228, N-(3-chloro-4-fluorophenyl)-N′-hydroxy-2-((tetrahydro-2H-pyran-4-yl)amino)-1H-imidazo[4,5-b]pyridine-7-carboximidamide]"
,> 10,"O/N=C(\Nc1ccc(F)c(Cl)c1)c1ccnc2nc(N3CC[C@H](O)C3)[nH]c12 [Example 280, (S)—N-(3-chloro-4-fluorophenyl)-N′-hydroxy-2-(3-hydroxypyrrolidin-1-yl)-1H-imidazo[4,5-b]pyridine-7-carboximidamide]"
,1.68,"CC(C)(C)CNCc1nc2nccc(/C(=N/O)Nc3ccc(F)c(Cl)c3)c2[nH]1 [Example 141, N-(3-Chloro-4-fluorophenyl)-N′-hydroxy-2-((neopentylamino)methyl)-1H-imidazo[4,5-b]pyridine-7-carboximidamide]"
,1.21,"CN(CCNc1nc2nccc(/C(=N/O)Nc3ccc(F)c(Cl)c3)c2[nH]1)C1CCOCC1 [Example 239, N-(3-chloro-4-fluorophenyl)-N′-hydroxy-2-((2-(methyl(tetrahydro-2H-pyran-4-yl)amino)ethyl)amino)-1H-imidazo[4,5-b]pyridine-7-carboximidamide]"
,1.39,"O/N=C(\Nc1ccc(F)c(Cl)c1)c1ccnc2nc(C3CC3)[nH]c12 [Example 109, N-(3-Chloro-4-fluorophenyl)-2-cyclopropyl-N′-hydroxy-1H-imidazo[4,5-b]pyridine-7-carboximidamide]"
,3.71,"O/N=C(\Nc1ccc(F)c(Cl)c1)c1ccnc2nc(CNCc3ccncc3)[nH]c12 [Example 133, N-(3-Chloro-4-fluorophenyl)-N′-hydroxy-2-(((pyridin-4-ylmethyl)amino)methyl)-1H-imidazo[4,5-b]pyridine-7-carboximidamide]"
2.81,,"CN(CCc1nc2nccc(/C(=N/O)Nc3ccc(F)c(Cl)c3)c2[nH]1)CC1COCCO1 (stereo not shown) [Example 400, 2-(2-(((1,4-dioxan-2-yl)methyl)(methyl)amino)ethyl)-N-(3-chloro-4-fluorophenyl)-N′-hydroxy-1H-imidazo[4,5-b]pyridine-7-carboximidamide]"
3.49,,"CN1CCCCC1Cc1nc2nccc(/C(=N/O)Nc3ccc(F)c(Cl)c3)c2[nH]1 (stereo not shown) [Example 305, N-(3-chloro-4-fluorophenyl)-N′-hydroxy-2-((1-methylpiperidin-2-yl)methyl)-1H-imidazo[4,5-b]pyridine-7-carboximidamide]"
0.917,,"O/N=C(\Nc1ccc(F)c(Cl)c1)c1ccnc2nc(NCCN3CCC(F)(F)C3)[nH]c12 [Example 491, N-(3-chloro-4-fluorophenyl)-2-((2-(3,3-difluoropyrrolidin-1-yl)ethyl)amino)-N′-hydroxy-1H-imidazo[4,5-b]pyridine-7-carboximidamide]"

# Continued, compound first:
SMILES,EC50 [1] [µM],EC50 [2] [µM]
"O/N=C(\Nc1ccc(F)c(Cl)c1)c1cc(F)c(F)c2nc(NCc3ncccn3)[nH]c12 [Example 350, N-(3-chloro-4-fluorophenyl)-4,5-difluoro-N′-hydroxy-2-((pyrimidin-2-ylmethyl)amino)-1H-benzo[d]imidazole-7-carboximidamide]",7.03,
"CN(C)CCCNc1nc2cc(F)cc(/C(=N/O)Nc3ccc(F)c(Cl)c3)c2[nH]1 [Example 389, N-(3-chloro-4-fluorophenyl)-2-((3-(dimethylamino)propyl)amino)-5-fluoro-N′-hydroxy-1H-benzo[d]imidazole-7-carboximidamide]",1.16,
"CN1CCOC(CNc2nc3c(F)c(F)cc(/C(=N/O)Nc4ccc(F)c(Cl)c4)c3[nH]2)C1 (stereo not shown) [Example 356, N-(3-chloro-4-fluorophenyl)-4,5-difluoro-N′-hydroxy-2-(((4-methylmorpholin-2-yl)methyl)amino)-1H-benzo[d]imidazole-7-carboximidamide]",3.26,
"NCCNc1nc2c(F)c(F)cc(/C(=N/O)Nc3ccc(F)c(Cl)c3)c2[nH]1 [Example 333, 2-((2-aminoethyl)amino)-N-(3-chloro-4-fluorophenyl)-4,5-difluoro-N′-hydroxy-1H-benzo[d]imidazole-7-carboximidamide]",1.39,
"O/N=C(\Nc1cccc(Cl)c1)c1cc(F)c(F)c2nc(NCCN3CCCC3)[nH]c12 [Example 330, N-(3-chlorophenyl)-4,5-difluoro-N′-hydroxy-2-((2-(pyrrolidin-1-yl)ethyl)amino)-1H-benzo[d]imidazole-7-carboximidamide]",0.414,
"CN1CCCC(c2nc3c(F)c(F)cc(/C(=N/O)Nc4cccc(Cl)c4)c3[nH]2)C1 (stereo not shown) [Example 44, N-(3-Chlorophenyl)-4,5-difluoro-N′-hydroxy-2-(1-methylpiperidin-3-yl)-1H-benzo[d]imidazole-7-carboximidamide]",,1.65
"Nc1nc2cc(F)cc(/C(=N/O)Nc3cccc(Br)c3)c2[nH]1 [Example 372, 2-amino-N-(3-bromophenyl)-5-fluoro-N′-hydroxy-1H-benzo[d]imidazole-7-carboximidamide]",0.483,
"O/N=C(\Nc1ccc(Cl)cc1)c1ccnc2nc[nH]c12 [Example 87, N-(4-Chlorophenyl)-N′-hydroxy-1H-imidazo[4,5-b]pyridine-7-carboximidamide]",,0.846
"Nc1nc2c(F)ccc(/C(=N/O)Nc3ccc(F)c(C(F)(F)F)c3)c2[nH]1 [Example 21, 2-Amino-4-fluoro-N-(4-fluoro-3-(trifluoromethyl)phenyl)-N′-hydroxy-1H-benzo[d]imidazole-7-carboximidamide]",,0.725
"CN(C(=NO)c1ccnc2nc[nH]c12)c1ccc(F)c(Cl)c1 [Example 369, N-(3-chloro-4-fluorophenyl)-N′-hydroxy-N-methyl-1H-imidazo[4,5-b]pyridine-7-carboximidamide]",> 10,
"O/N=C(\Nc1cccc(Cl)c1)c1ccnc2nc(CCN3CCCC3)[nH]c12 [Example 268, N-(3-chlorophenyl)-N′-hydroxy-2-(2-(pyrrolidin-1-yl)ethyl)-1H-imidazo[4,5-b]pyridine-7-carboximidamide]",,0.952
"O/N=C(\Nc1ccc(Br)cc1)c1ccnc2nc[nH]c12 [Example 88, N-(4-Bromophenyl)-N′-hydroxy-1H-imidazo[4,5-b]pyridine-7-carboximidamide]",,0.916
"NCc1nc2c(F)ccc(/C(=N/O)Nc3ccc(F)c(Cl)c3)c2[nH]1 [Example 291, 2-(aminomethyl)-N-(3-chloro-4-fluorophenyl)-4-fluoro-N′-hydroxy-1H-benzo[d]imidazole-7-carboximidamide]",,2.65
"CN(C)[C@@H]1CCC[C@H]1Nc1nc2c(F)c(F)cc(/C(=N/O)Nc3ccc(F)c(Cl)c3)c2[nH]1 [Example 486, N-(3-chloro-4-fluorophenyl)-2-(((1R,2R)-2-(dimethylamino)cyclopentyl)amino)-4,5-difluoro-N′-hydroxy-1H-benzo[d]imidazole-7-carboximidamide]",0.284,
"OCC1CCCN1CCNc1nc2c(F)c(F)cc(/C(=N/O)Nc3ccc(F)c(Cl)c3)c2[nH]1 (stereo not shown) [Example 490, N-(3-chloro-4-fluorophenyl)-4,5-difluoro-N′-hydroxy-2-((2-(2-(hydroxymethyl)pyrrolidin-1-yl)ethyl)amino)-1H-benzo[d]imidazole-7-carboximidamide]",0.186,
"O=S(=O)(NCCNc1nc2c(F)c(F)cc(/C(=N/O)Nc3ccc(F)c(Cl)c3)c2[nH]1)c1ccccc1 [Example 339, N-(3-chloro-4-fluorophenyl)-4,5-difluoro-N′-hydroxy-2-((2-(phenylsulfonamido)ethyl)amino)-1H-benzo[d]imidazole-7-carboximidamide]",> 10,
